Like-named read-outs stand apart in the source and are kept apart here.
System: Aedes aegypti
Experiment: Warm Body assay, mosquito landings on the baited warm body
Format: in vivo
Conditions: for pest or weed control at 16 µg/mL / pest or weed control at 400 µg/mL / pest or weed control at 10000 µg/mL: Aedes aegypti, read-out: Percentage of repellence of mosquitoes landing on the warm body; for mosquitoes that still land on the warm body: 10 mg/mL (1 mg absolute applied)
Experimental: The controlling effect according to the present invention was assessed using an adapted Warm Body assay as defined in Kröber T, Kessler S, Frei J, Bourquin M, Guerin P M. 2010. J Am Mosq Control Assoc. 26:381-386. In this in-vitro assay the number of mosquito landing on a warm body, simulating an attractive host treated with the tested stimuli, was measured in order to assess the repellence effect.
The published protocol has been adapted as the switch from Anopheles gambiae to Ae. aegypti led to a decrease of mosquitoes placed in the tested cage due to the size difference (i.e. 30 mosquitoes instead of 50) and to an increase of lighting since Ae. aegypti is a diurnal mosquitoes (i.e. 150 lux instead of 4 lux).
On the sandblasted glass Petri dish covering the warm body (28.3 cm^2), 100 μL of the compounds diluted at different concentrations in ethanol was applied. The number of mosquito landing on the warm body was counted for each stimulus. Number of landings on pure ethanol (solvent) control treatment was used to normalize the data and calculate the percentage of repellence.

[1] = γ-lactones, 0.016 mg/mL in ethanol
[2] = γ-lactones, 0.4 mg/mL in ethanol
[3] = γ-lactones, 10 mg/mL in ethanol
[4] = more complex lactones (types A, B, C), 0.016 mg/mL
[5] = more complex lactones (types A, B, C), 0.4 mg/mL
[6] = more complex lactones (types A, B, C), 10 mg/mL

For `CCC=CC[C@@H]1CCCC(=O)O1` [(6S)-6-pent-2-enyloxan-2-one], which pest or weed control at 16 µg/mL (δ-lactones, 0.016 mg/mL) is on record?
The pest or weed control at 16 µg/mL was 73%.

And the pest or weed control at 400 µg/mL (δ-lactones, 0.4 mg/mL)?
The pest or weed control at 400 µg/mL was 96%.

And the pest or weed control at 10000 µg/mL (δ-lactones, 10 mg/mL)?
The pest or weed control at 10000 µg/mL was 96%.

With `CCCCC=CC1CCC(=O)O1` (centres unmarked) [5-hex-1-enyloxolan-2-one] as the compound, how does the pest or weed control at 16 µg/mL [1] read?
Its pest or weed control at 16 µg/mL is 46%.

And the pest or weed control at 400 µg/mL [2]?
The pest or weed control at 400 µg/mL was 87%.

And the pest or weed control at 10000 µg/mL [3]?
The pest or weed control at 10000 µg/mL was 95%.

Which pest or weed control at 16 µg/mL (β- and ε-lactones, 0.016 mg/mL) does the source give for `C=CCCC1CCCCC(=O)O1` (centres unmarked) [7-but-3-enyloxepan-2-one] here?
Its pest or weed control at 16 µg/mL is 43%.

And the pest or weed control at 400 µg/mL (β- and ε-lactones, 0.4 mg/mL)?
Its pest or weed control at 400 µg/mL is 75%.

And the pest or weed control at 10000 µg/mL (β- and ε-lactones, 10 mg/mL)?
Its pest or weed control at 10000 µg/mL is 99%.

With `CCCCCCC=CC1CCC(=O)O1` (centres unmarked) [5-oct-1-enyloxolan-2-one] as the compound, how does the pest or weed control at 16 µg/mL [1] read?
The pest or weed control at 16 µg/mL was 0%.

What about the pest or weed control at 400 µg/mL [2] of the same compound?
Its pest or weed control at 400 µg/mL is 60%.

And the pest or weed control at 10000 µg/mL [3]?
The pest or weed control at 10000 µg/mL was 98%.

Which results are given for `C=CC1CCCC(=O)O1` (centres unmarked) [6-ethenyloxan-2-one]?
mosquitoes that still land on the warm body: prevents any mosquito from landing; pest or weed control at 16 µg/mL (δ-lactones, 0.016 mg/mL): 31%; pest or weed control at 400 µg/mL (δ-lactones, 0.4 mg/mL): 30%; pest or weed control at 10000 µg/mL (δ-lactones, 10 mg/mL): 100%

With `C=C/C=C\C1C(=O)OC1CCCCC` (centres unmarked) [(Z)-3-buta-1,3-dienyl-4-pentyloxetan-2-one] as the compound, how does the pest or weed control at 16 µg/mL (β- and ε-lactones, 0.016 mg/mL) read?
Its pest or weed control at 16 µg/mL is 64%.

What about the pest or weed control at 400 µg/mL (β- and ε-lactones, 0.4 mg/mL) of the same compound?
The pest or weed control at 400 µg/mL was 87%.

And the pest or weed control at 10000 µg/mL (β- and ε-lactones, 10 mg/mL)?
Its pest or weed control at 10000 µg/mL is 95%.

How did the pest or weed control at 16 µg/mL [1] turn out when `CCCCCCC1CCC(=O)O1` (centres unmarked) [5-hexyloxolan-2-one] was run?
The pest or weed control at 16 µg/mL was 0%.

What about the pest or weed control at 400 µg/mL [2] of the same compound?
Its pest or weed control at 400 µg/mL is 69%.

And the pest or weed control at 10000 µg/mL [3]?
Its pest or weed control at 10000 µg/mL is 92%.

Which results are given for `CCCCCC1CCCCC(=O)O1` (centres unmarked) [7-pentyloxepan-2-one]?
pest or weed control at 400 µg/mL (β- and ε-lactones, 0.4 mg/mL): 52%; pest or weed control at 10000 µg/mL (β- and ε-lactones, 10 mg/mL): 98%; Percentage of repellence of mosquitoes landing on the warm body (β- and ε-lactones, 0.4 mg/mL): 52%

For `CCC1CCCC(=O)O1` (centres unmarked) [6-ethyloxan-2-one], which “mosquitoes that still land on the warm body” value is on record?
The value was greater than 50%.

What about the pest or weed control at 16 µg/mL (δ-lactones, 0.016 mg/mL) of the same compound?
Its pest or weed control at 16 µg/mL is 0%.

And the pest or weed control at 400 µg/mL (δ-lactones, 0.4 mg/mL)?
Its pest or weed control at 400 µg/mL is 11%.

And the pest or weed control at 10000 µg/mL (δ-lactones, 10 mg/mL)?
The pest or weed control at 10000 µg/mL was 48%.

What does the source list for `CCCCCC1=COC(=O)CC1` [5-pentyl-3,4-dihydro-2H-pyran-2-one]?
pest or weed control at 16 µg/mL [4]: 60%; pest or weed control at 400 µg/mL [5]: 69%; pest or weed control at 10000 µg/mL [6]: 97%

How did the pest or weed control at 16 µg/mL [4] turn out when `O=C1CCC2CCCCC2O1` (centres unmarked) [3,4,4a,5,6,7,8,8a-octahydrochromen-2-one] was run?
Its pest or weed control at 16 µg/mL is 35%.

And the pest or weed control at 400 µg/mL [5]?
The pest or weed control at 400 µg/mL was 90%.

What about the pest or weed control at 10000 µg/mL [6] of the same compound?
The pest or weed control at 10000 µg/mL was 100%.

How did the pest or weed control at 16 µg/mL (β- and ε-lactones, 0.016 mg/mL) turn out when `CC(C)C1OC(=O)C1(C)C` (centres unmarked) [3,3-dimethyl-4-propan-2-yloxetan-2-one] was run?
Its pest or weed control at 16 µg/mL is 36%.

What about the pest or weed control at 400 µg/mL (β- and ε-lactones, 0.4 mg/mL) of the same compound?
The pest or weed control at 400 µg/mL was less than 40%.

And the pest or weed control at 10000 µg/mL (β- and ε-lactones, 10 mg/mL)?
Its pest or weed control at 10000 µg/mL is 100%.

With `CCCCCCCC1CCC(=O)O1` (centres unmarked) [5-heptyloxolan-2-one] as the compound, how does the pest or weed control at 16 µg/mL [1] read?
The pest or weed control at 16 µg/mL was 15%.

And the pest or weed control at 400 µg/mL [2]?
Its pest or weed control at 400 µg/mL is 28%.

And the pest or weed control at 10000 µg/mL [3]?
The pest or weed control at 10000 µg/mL was 70%.

With `CC/C=C\CC/C=C/C1CCC(=O)O1` (centres unmarked) [5-[(1E,5Z)-octa-1,5-dienyl]oxolan-2-one] as the compound, how does the pest or weed control at 16 µg/mL [1] read?
Its pest or weed control at 16 µg/mL is 52%.

And the pest or weed control at 400 µg/mL [2]?
The pest or weed control at 400 µg/mL was 65%.

And the pest or weed control at 10000 µg/mL [3]?
The pest or weed control at 10000 µg/mL was 97%.

For `CCCCCC1C=CC(=O)O1` (centres unmarked) [2-pentyl-2H-furan-5-one], which pest or weed control at 16 µg/mL [4] is on record?
Its pest or weed control at 16 µg/mL is 0%.

What about the pest or weed control at 400 µg/mL [5] of the same compound?
The pest or weed control at 400 µg/mL was 53%.

And the pest or weed control at 10000 µg/mL [6]?
Its pest or weed control at 10000 µg/mL is 100%.

Which results are given for `O=C1CCCCC(C2CCCCC2)O1` (centres unmarked) [7-cyclohexyloxepan-2-one]?
pest or weed control at 16 µg/mL (β- and ε-lactones, 0.016 mg/mL): 0%; pest or weed control at 400 µg/mL (β- and ε-lactones, 0.4 mg/mL): 10%; pest or weed control at 10000 µg/mL (β- and ε-lactones, 10 mg/mL): 26%

Which pest or weed control at 16 µg/mL (δ-lactones, 0.016 mg/mL) does the source give for `CCCCCCC1CCCC(=O)O1` (centres unmarked) [6-hexyloxan-2-one] here?
The pest or weed control at 16 µg/mL was 0%.

What about the pest or weed control at 400 µg/mL (δ-lactones, 0.4 mg/mL) of the same compound?
The pest or weed control at 400 µg/mL was 76%.

And the pest or weed control at 10000 µg/mL (δ-lactones, 10 mg/mL)?
The pest or weed control at 10000 µg/mL was 91%.

With `CC(C)(C)C1CCCCC(=O)O1` (centres unmarked) [7-tert-butyloxepan-2-one] as the compound, how does the pest or weed control at 16 µg/mL (β- and ε-lactones, 0.016 mg/mL) read?
Its pest or weed control at 16 µg/mL is 0%.

And the pest or weed control at 400 µg/mL (β- and ε-lactones, 0.4 mg/mL)?
Its pest or weed control at 400 µg/mL is 0%.

What about the pest or weed control at 10000 µg/mL (β- and ε-lactones, 10 mg/mL) of the same compound?
Its pest or weed control at 10000 µg/mL is 66%.

What does the source list for `CCCCCC1CCC(=O)O1` (centres unmarked) [5-pentyloxolan-2-one]?
pest or weed control at 16 µg/mL [1]: 9%; pest or weed control at 400 µg/mL [2]: 56%; pest or weed control at 10000 µg/mL [3]: 99%

Which results are given for `CCCCC1CCC(=O)O1` (centres unmarked) [5-butyloxolan-2-one]?
pest or weed control at 16 µg/mL [1]: 41%; pest or weed control at 400 µg/mL [2]: 44%; pest or weed control at 10000 µg/mL [3]: 100%

Which pest or weed control at 16 µg/mL [1] does the source give for `C=CCCCCCCC1CCC(=O)O1` (centres unmarked) [5-oct-7-enyloxolan-2-one] here?
The pest or weed control at 16 µg/mL was 46%.

What about the pest or weed control at 400 µg/mL [2] of the same compound?
The pest or weed control at 400 µg/mL was 69%.

And the pest or weed control at 10000 µg/mL [3]?
Its pest or weed control at 10000 µg/mL is 80%.

Which pest or weed control at 16 µg/mL [1] does the source give for `CCCCCCCCCCC1CCC(=O)O1` (centres unmarked) [5-decyloxolan-2-one] here?
The pest or weed control at 16 µg/mL was 2%.

And the pest or weed control at 400 µg/mL [2]?
Its pest or weed control at 400 µg/mL is 14%.

What about the pest or weed control at 10000 µg/mL [3] of the same compound?
The pest or weed control at 10000 µg/mL was 60%.

With `CC=CCCC1CCC(=O)O1` (centres unmarked) [5-pent-3-enyloxolan-2-one] as the compound, how does the pest or weed control at 16 µg/mL [1] read?
Its pest or weed control at 16 µg/mL is 0%.

What about the pest or weed control at 400 µg/mL [2] of the same compound?
Its pest or weed control at 400 µg/mL is 95%.

What about the pest or weed control at 10000 µg/mL [3] of the same compound?
Its pest or weed control at 10000 µg/mL is 100%.

From patent US20260231939A1, “ARTHROPOD CONTROL COMPOSITIONS” (Firmenich SA, priority 2022, published 2026)
